The source of these data is US20260022142A1, “MACROCYCLIC IMMUNOMODULATORS” (Bristol-Myers Squibb Company, priority 2022, published 2026).

Numbered stars: 1 amine (or outer) side, 2 acyl side, 3 side chain; on linkers, the order of the positions; unused ones are H or OH. Bridge positions count the residues as written; N and C are the ends. Square brackets hold non-standard residues; d marks the D form. Peptide text beside a SMILES is read from it. * marks the point of attachment. Phe(3-CF3) = N[C@@H](Cc1cccc(C(F)(F)F)c1)C(=O)O; Ala(morpholin-4-yl) = N[C@@H](CN1CCOCC1)C(=O)O; Phe(4-COOH) = N[C@@H](Cc1ccc(C(=O)O)cc1)C(=O)O; Bip = N[C@@H](Cc1ccc(-c2ccccc2)cc1)C(=O)O; Phe(3-CN) = N#Cc1cccc(C[C@H](N)C(=O)O)c1; Phe(3-OMe) = COc1cccc(C[C@H](N)C(=O)O)c1; Phe(3-Me) = Cc1cccc(C[C@H](N)C(=O)O)c1; Phe(4-F) = N[C@@H](Cc1ccc(F)cc1)C(=O)O; γGlu = O=C(O)[C@H](CCC(=O)[*:2])N[*:1]; NH(CH2)12COOH = O=C(O)CCCCCCCCCCCCN*; Val(3-OH) = CC(C)(O)[C@H](N)C(=O)O; Cha = N[C@@H](CC1CCCCC1)C(=O)O; Cit = NC(=O)NCCC[C@H](N)C(=O)O; Carboxymethyl = O=C(O)C*; Orn = NCCC[C@H](N)C(=O)O; Pra = C#CC[C@H](N)C(=O)O; Aun = NCCCCCCCCCCC(=O)O; Dab = NCC[C@H](N)C(=O)O; Dap = NC[C@H](N)C(=O)O; AEEA = NCCOCCOCC(=O)O

In the experiment the target is T1, PD-1/PD-L1 interaction (PE-labeled human PD-L1-Ig binding to Jurkat cell line over-expressing human PD-1) (Homo sapiens, UniProt Q15116).
T1 construct: expressed in transfected cells; host or cells: Jurkat
T1 sequence (Q15116 25-288): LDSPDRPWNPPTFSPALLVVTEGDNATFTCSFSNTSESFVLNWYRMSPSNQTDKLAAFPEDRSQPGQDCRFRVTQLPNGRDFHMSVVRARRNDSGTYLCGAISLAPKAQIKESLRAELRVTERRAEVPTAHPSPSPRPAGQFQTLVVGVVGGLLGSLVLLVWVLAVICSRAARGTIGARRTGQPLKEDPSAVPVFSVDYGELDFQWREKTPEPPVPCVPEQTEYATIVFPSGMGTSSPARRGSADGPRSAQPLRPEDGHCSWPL
The experiment can be described thus: Jurkat-PD-1 Cell Binding High-Content Screening Assay (CBA). The experiment is classed as cell-based. The following applies: Jurkat cell line over-expressing human PD-1; PE-labeled PD-L1-Ig 20 nM final; read-out: Jurkat hPD1-PDL1 IC50. An outline of the steps:
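First, compound is added to PD-1-expressing Jurkat cells in serum-containing DMEM and left 2 h at 37° C. Next, PE-conjugated PD-L1-Ig is introduced at 20 nM final concentration for 1 hour. Finally, cells are fixed in 4% paraformaldehyde with Hoechst 33342, washed and imaged.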
As usually defined, the IC50 is the concentration that inhibits the measured activity by half. Regarding `Cc1cccc(C[C@@H]2NC(=O)[C@H](CC(=O)O)NC(=O)[C@H](Cc3ccc(OCC(=O)O)cc3)NC(=O)[C@H](CCN)NC(=O)CSC[C@@H](C(=O)N[C@@H](CCN)C(=O)NCCOCCOCC(=O)N[C@@H](CC(=O)O)C(=O)NCCOCCOCC(=O)N[C@@H](CCC(=O)NCC(=O)NCCCCCCCCCCCCC(=O)O)C(=O)O)NC(=O)[C@H](Cc3cnc[nH]3)NC(=O)[C@H](C(C)(C)O)NC(=O)[C@H](CC3CCCCC3)NC(=O)[C@H](CCN)NC(=O)[C@@H](CC(C)C)NC(=O)[C@H](CCCN)NC(=O)[C@H](Cc3ccc(C(=O)O)cc3)NC(=O)[C@H](Cc3ccc(-c4ccccc4)cc3)NC(=O)[C@H](Cc3ccc(C(=O)O)cc3)NC2=O)c1` [Compound 1285] ({CH2CO}-[Dab]Y(Carboxymethyl)D[Phe(3-Me)][Phe(4-COOH)][Bip][Phe(4-COOH)][Orn][dL][Dab][Cha][Val(3-OH)]HC[Dab][AEEA]D[AEEA][γGlu]G-{NH(CH2)12COOH}; thioether N-14), the IC50 was determined as 0.0064 µM.

`C#CC[C@H](NC(=O)[C@H](CCN)NC(=O)[C@@H]1CSCC(=O)N[C@@H](CN2CCOCC2)C(=O)N[C@@H](Cc2ccc(OCC(=O)O)cc2)C(=O)N[C@@H](CC(=O)O)C(=O)N[C@@H](Cc2cccc(C)c2)C(=O)N[C@@H](Cc2ccc(C(=O)O)cc2)C(=O)N[C@@H](Cc2ccc(-c3ccccc3)cc2)C(=O)N[C@@H](Cc2ccc(C(=O)O)cc2)C(=O)N[C@@H](CCCN)C(=O)N[C@H](CC(C)C)C(=O)N[C@@H](CCN)C(=O)N[C@@H](CC2CCCCC2)C(=O)N[C@@H](C(C)(C)O)C(=O)N[C@@H](CO)C(=O)N1)C(=O)NCCCCCCCCCCC(=O)O` [Compound 1286] ({CH2CO}-[Ala(morpholin-4-yl)]Y(Carboxymethyl)D[Phe(3-Me)][Phe(4-COOH)][Bip][Phe(4-COOH)][Orn][dL][Dab][Cha][Val(3-OH)]SC[Dab][Pra][Aun]-OH; thioether N-14): the 50% inhibitory concentration (IC50) stood at 0.0056 µM.

Regarding `CC(C)C[C@H]1NC(=O)[C@H](CCCN)NC(=O)[C@H](Cc2ccc(O)cc2)NC(=O)[C@H](Cc2ccc(-c3ccccc3)cc2)NC(=O)[C@H](Cc2ccc(OCC(=O)O)cc2)NC(=O)[C@H](Cc2cccc(C(F)(F)F)c2)NC(=O)[C@H](CC(=O)O)NC(=O)[C@H](Cc2ccc(OCC(=O)O)cc2)NC(=O)[C@H](CN)NC(=O)CSC[C@@H](C(=O)N[C@@H](CCN)C(=O)NCCOCCOCC(=O)NCCCCCCCCCCC(=O)O)NC(=O)[C@H](CCCN)NC(=O)[C@H](C(C)C)NC(=O)[C@H](CC2CCCCC2)NC(=O)[C@H](CCN)NC1=O` [Compound 1287] ({CH2CO}-[Dap]Y(Carboxymethyl)D[Phe(3-CF3)]Y(Carboxymethyl)[Bip]Y[Orn][dL][Dab][Cha]V[Orn]C[Dab][AEEA][Aun]-OH; thioether N-14), the IC50 turned out to be 0.0082 µM.

As to `CC(C)C[C@H]1NC(=O)[C@H](CCCN)NC(=O)[C@H](Cc2ccc(O)cc2)NC(=O)[C@H](Cc2ccc(-c3ccccc3)cc2)NC(=O)[C@H](C(C)C)NC(=O)[C@H](Cc2cccc(C(F)(F)F)c2)NC(=O)[C@H](CC(=O)O)NC(=O)[C@H](Cc2ccc(OCC(=O)O)cc2)NC(=O)[C@H](CN)NC(=O)CSC[C@@H](C(=O)N[C@@H](CCN)C(=O)NCCOCCOCC(=O)NCCCCCCCCCCC(=O)O)NC(=O)[C@H](CCCN)NC(=O)[C@H](C(C)C)NC(=O)[C@H](CC2CCCCC2)NC(=O)[C@H](CCN)NC1=O` [Compound 1288] ({CH2CO}-[Dap]Y(Carboxymethyl)D[Phe(3-CF3)]V[Bip]Y[Orn][dL][Dab][Cha]V[Orn]C[Dab][AEEA][Aun]-OH; thioether N-14), the IC50 turned out to be 0.0103 µM.

As for `COc1cccc(C[C@@H]2NC(=O)[C@H](CC(=O)O)NC(=O)[C@H](Cc3ccc(OCC(=O)O)cc3)NC(=O)[C@H](CN)NC(=O)CSC[C@@H](C(=O)N[C@@H](CCN)C(=O)NCCOCCOCC(=O)NCCCCCCCCCCC(=O)O)NC(=O)[C@H](CCCN)NC(=O)[C@H](C(C)C)NC(=O)[C@H](CC3CCCCC3)NC(=O)[C@H](CCN)NC(=O)[C@@H](CC(C)C)NC(=O)[C@H](CCCN)NC(=O)[C@H](Cc3ccc(O)cc3)NC(=O)[C@H](Cc3ccc(-c4ccccc4)cc3)NC(=O)[C@H](C(C)C)NC2=O)c1` [Compound 1289] ({CH2CO}-[Dap]Y(Carboxymethyl)D[Phe(3-OMe)]V[Bip]Y[Orn][dL][Dab][Cha]V[Orn]C[Dab][AEEA][Aun]-OH; thioether N-14), the IC50 was 0.0109 µM.

Consider `CC(C)C[C@H]1NC(=O)[C@H](CCCN)NC(=O)[C@H](Cc2ccc(O)cc2)NC(=O)[C@H](Cc2ccc(-c3ccccc3)cc2)NC(=O)[C@H](C(C)C)NC(=O)[C@H](Cc2c[nH]c3ccccc23)NC(=O)[C@H](CC(=O)O)NC(=O)[C@H](Cc2ccc(OCC(=O)O)cc2)NC(=O)[C@H](CN)NC(=O)CSC[C@@H](C(=O)N[C@@H](CCN)C(=O)NCCOCCOCC(=O)NCCCCCCCCCCC(=O)O)NC(=O)[C@H](CCCN)NC(=O)[C@H](C(C)C)NC(=O)[C@H](CC2CCCCC2)NC(=O)[C@H](CCN)NC1=O` [Compound 1290] ({CH2CO}-[Dap]Y(Carboxymethyl)DWV[Bip]Y[Orn][dL][Dab][Cha]V[Orn]C[Dab][AEEA][Aun]-OH; thioether N-14), for which the IC50 was 0.0125 µM.

As to `CC(C)C[C@H]1NC(=O)[C@H](CCCN)NC(=O)[C@H](Cc2ccc(O)cc2)NC(=O)[C@H](Cc2ccc(-c3ccccc3)cc2)NC(=O)[C@H](C(C)C)NC(=O)[C@H](Cc2cccc(C#N)c2)NC(=O)[C@H](CC(=O)O)NC(=O)[C@H](Cc2ccc(OCC(=O)O)cc2)NC(=O)[C@H](CN)NC(=O)CSC[C@@H](C(=O)N[C@@H](CCN)C(=O)NCCOCCOCC(=O)NCCCCCCCCCCC(=O)O)NC(=O)[C@H](CCCN)NC(=O)[C@H](C(C)C)NC(=O)[C@H](CC2CCCCC2)NC(=O)[C@H](CCN)NC1=O` [Compound 1291] ({CH2CO}-[Dap]Y(Carboxymethyl)D[Phe(3-CN)]V[Bip]Y[Orn][dL][Dab][Cha]V[Orn]C[Dab][AEEA][Aun]-OH; thioether N-14), the IC50 turned out to be 0.0147 µM.

For the compound `Cc1cccc(C[C@@H]2NC(=O)[C@H](CC(=O)O)NC(=O)[C@H](Cc3ccc(OCC(=O)O)cc3)NC(=O)[C@H](CN)NC(=O)CSC[C@@H](C(=O)NCC(=O)N[C@@H](CCC(=O)O)C(=O)NCCCCCCCCCCC(=O)O)NC(=O)[C@H]([C@@H](C)O)NC(=O)[C@H](C(C)C)NC(=O)[C@H](CC3CCCCC3)NC(=O)[C@H](CCN)NC(=O)[C@@H](CC(C)C)NC(=O)[C@H](CCCN)NC(=O)[C@H](CCCNC(N)=O)NC(=O)[C@H](Cc3ccc(-c4ccccc4)cc3)NC(=O)[C@H](C(C)C)NC2=O)c1` [Compound 1292] ({CH2CO}-[Dap]Y(Carboxymethyl)D[Phe(3-Me)]V[Bip][Cit][Orn][dL][Dab][Cha]VTCGE[Aun]-OH; thioether N-14), the IC50 was determined as 0.018 µM.

For `Cc1cccc(C[C@@H]2NC(=O)[C@H](CC(=O)O)NC(=O)[C@H](Cc3ccc(OCC(=O)O)cc3)NC(=O)[C@H]([C@@H](C)O)NC(=O)CSC[C@@H](C(=O)N[C@@H](CCCCN)C(=O)NCCCCCCCCCCC(=O)O)NC(=O)[C@H]([C@@H](C)O)NC(=O)[C@H](C(C)C)NC(=O)[C@H](CC3CCCCC3)NC(=O)[C@H](CCN)NC(=O)[C@@H](CC(C)C)NC(=O)[C@H](CCCN)NC(=O)[C@H](Cc3ccc(OCC(=O)O)cc3)NC(=O)[C@H](Cc3ccc(-c4ccccc4)cc3)NC(=O)[C@H](Cc3ccc(OCC(=O)O)cc3)NC2=O)c1` [Compound 1293] ({CH2CO}-TY(Carboxymethyl)D[Phe(3-Me)]Y(Carboxymethyl)[Bip]Y(Carboxymethyl)[Orn][dL][Dab][Cha]VTCK[Aun]-OH; thioether N-14), the IC50 was determined as 0.0191 µM.

Consider `CC(C)C[C@H]1NC(=O)[C@H](CCCN)NC(=O)[C@H](Cc2ccc(O)cc2)NC(=O)[C@H](Cc2ccc(-c3ccccc3)cc2)NC(=O)[C@H](C(C)C)NC(=O)[C@H](Cc2ccc(F)cc2)NC(=O)[C@H](CC(=O)O)NC(=O)[C@H](Cc2ccc(OCC(=O)O)cc2)NC(=O)[C@H](CN)NC(=O)CSC[C@@H](C(=O)N[C@@H](CCN)C(=O)NCCOCCOCC(=O)NCCCCCCCCCCC(=O)O)NC(=O)[C@H](CCCN)NC(=O)[C@H](C(C)C)NC(=O)[C@H](CC2CCCCC2)NC(=O)[C@H](CCN)NC1=O` [Compound 1294] ({CH2CO}-[Dap]Y(Carboxymethyl)D[Phe(4-F)]V[Bip]Y[Orn][dL][Dab][Cha]V[Orn]C[Dab][AEEA][Aun]-OH; thioether N-14), for which the IC50 is 0.0196 µM.

`Cc1cccc(C[C@@H]2NC(=O)[C@H](CC(=O)O)NC(=O)[C@H](Cc3ccc(OCC(=O)O)cc3)NC(=O)[C@H](CN)NC(=O)CSC[C@@H](C(=O)NCC(=O)NCCCCCCCCCCC(=O)O)NC(=O)[C@H]([C@@H](C)O)NC(=O)[C@H](C(C)C)NC(=O)[C@H](CC3CCCCC3)NC(=O)[C@H](CCN)NC(=O)[C@@H](CC(C)C)NC(=O)[C@H](CCCN)NC(=O)[C@H](CCCNC(N)=O)NC(=O)[C@H](Cc3ccc(-c4ccccc4)cc3)NC(=O)[C@H](C(C)C)NC2=O)c1` [Compound 1295] ({CH2CO}-[Dap]Y(Carboxymethyl)D[Phe(3-Me)]V[Bip][Cit][Orn][dL][Dab][Cha]VTCG[Aun]-OH; thioether N-14): the IC50 was 0.0222 µM.

`Cc1cccc(C[C@@H]2NC(=O)[C@H](CC(=O)O)NC(=O)[C@H](Cc3ccc(OCC(=O)O)cc3)NC(=O)[C@H](CCCNC(=N)N)NC(=O)CSC[C@@H](C(=O)N[C@@H](CCCCN)C(=O)NCCCCCCCCCCC(=O)O)NC(=O)[C@H]([C@@H](C)O)NC(=O)[C@H](C(C)C)NC(=O)[C@H](CC3CCCCC3)NC(=O)[C@H](CCN)NC(=O)[C@@H](CC(C)C)NC(=O)[C@H](CCCN)NC(=O)[C@H](Cc3ccc(OCC(=O)O)cc3)NC(=O)[C@H](Cc3ccc(-c4ccccc4)cc3)NC(=O)[C@H](Cc3ccc(OCC(=O)O)cc3)NC2=O)c1` [Compound 1296] ({CH2CO}-RY(Carboxymethyl)D[Phe(3-Me)]Y(Carboxymethyl)[Bip]Y(Carboxymethyl)[Orn][dL][Dab][Cha]VTCK[Aun]-OH; thioether N-14): the IC50 came to 0.024 µM.
